Results: ChEMBL document CHEMBL1137357, “Further synthetic and biological studies on vitamin D hormone antagonists based on C24-alkylation and C2alpha-functionalization of 25-dehydro-1alpha-hydroxyvitamin D(3)-26,23-lactones” (J Med Chem, 2006)

Target: T1, Vitamin D3 receptor (Homo sapiens) (UniProt P11473)
T1 sequence (whole entry): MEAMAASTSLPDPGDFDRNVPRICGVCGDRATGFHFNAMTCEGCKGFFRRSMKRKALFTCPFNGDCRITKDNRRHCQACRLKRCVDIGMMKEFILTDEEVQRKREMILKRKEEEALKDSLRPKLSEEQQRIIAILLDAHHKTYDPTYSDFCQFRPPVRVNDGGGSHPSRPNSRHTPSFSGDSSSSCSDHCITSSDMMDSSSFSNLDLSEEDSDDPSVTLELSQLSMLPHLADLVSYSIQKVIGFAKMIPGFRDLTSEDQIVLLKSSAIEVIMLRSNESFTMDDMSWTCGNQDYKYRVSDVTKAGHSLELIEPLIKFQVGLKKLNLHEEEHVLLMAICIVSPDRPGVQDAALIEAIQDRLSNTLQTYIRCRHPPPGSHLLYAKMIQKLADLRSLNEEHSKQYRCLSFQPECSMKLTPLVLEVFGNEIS
Experiment: Antagonist activity against 1-alpha,25-dihydroxy vitamin D3-induced HL60 cell differentiation by NBT reduction method relative to TEI-9647
Assay type: functional, cell-based
Set-up: scale not given: the % may be the effect or the level left
Conditions: HL-60

SMILES	Activity [%]
C=C1/C(=C\C=C2/CCC[C@]3(C)[C@@H]([C@H](C)C[C@H]4OC(=O)C(=C)[C@@H]4CCC)CC[C@@H]23)C[C@@H](O)[C@H](C)[C@@H]1O	12
C=C1C[C@H](C[C@@H](C)[C@H]2CC[C@H]3/C(=C/C=C4/C[C@@H](O)[C@H](C)[C@H](O)C4=C)CCC[C@]23C)OC1=O	1020
C=C1C(=O)O[C@H](C[C@@H](C)[C@H]2CC[C@H]3/C(=C/C=C4/C[C@@H](O)[C@H](C)[C@H](O)C4=C)CCC[C@]23C)[C@@H]1C	476
C=C1/C(=C\C=C2/CCC[C@]3(C)[C@@H]([C@H](C)C[C@@H]4OC(=O)C(=C)[C@@H]4CCC)CC[C@@H]23)C[C@@H](O)[C@H](CCCO)[C@@H]1O	4200
C=C1/C(=C\C=C2/CCC[C@]3(C)[C@@H]([C@H](C)C[C@H]4OC(=O)C(=C)C4(C)C)CC[C@@H]23)C[C@@H](O)C[C@@H]1O	16
C=C1C(=O)O[C@@H](C[C@@H](C)[C@H]2CC[C@H]3/C(=C/C=C4/C[C@@H](O)[C@H](OCCCO)[C@H](O)C4=C)CCC[C@]23C)[C@@H]1C	1740
C=C1C(=O)O[C@H](C[C@@H](C)[C@H]2CC[C@H]3/C(=C/C=C4/C[C@@H](O)[C@H](OCCCO)[C@H](O)C4=C)CCC[C@]23C)[C@@H]1C	41
C=C1/C(=C\C=C2/CCC[C@]3(C)[C@@H]([C@H](C)C[C@@H]4OC(=O)C(=C)[C@@H]4CCCC)CC[C@@H]23)C[C@@H](O)C[C@@H]1O	179
C=C1C(=O)O[C@@H](C[C@@H](C)[C@H]2CC[C@H]3/C(=C/C=C4/C[C@@H](O)C[C@H](O)C4=C)CCC[C@]23C)[C@@H]1CCCC	58
C=C1C(=O)O[C@@H](C[C@@H](C)[C@H]2CC[C@H]3/C(=C/C=C4/C[C@@H](O)C[C@H](O)C4=C)CCC[C@]23C)[C@@H]1C	250
C=C1/C(=C\C=C2/CCC[C@]3(C)[C@@H]([C@H](C)C[C@H]4OC(=O)C(=C)[C@@H]4C)CC[C@@H]23)C[C@@H](O)C[C@@H]1O	7
C=C1/C(=C\C=C2/CCC[C@]3(C)[C@@H]([C@H](C)C[C@@H]4OC(=O)C(=C)[C@H]4CCC)CC[C@@H]23)C[C@@H](O)[C@H](OCCCO)[C@@H]1O	12100

More lines, now with the values ahead:

Activity [%]	SMILES
517	C=C1/C(=C\C=C2/CCC[C@]3(C)[C@@H]([C@H](C)C[C@@H]4OC(=O)C(=C)[C@@H]4C)CC[C@@H]23)C[C@@H](O)[C@H](CCCO)[C@@H]1O
2990	C=C1C[C@H](C[C@@H](C)[C@H]2CC[C@H]3/C(=C/C=C4/C[C@@H](O)[C@H](CCCO)[C@H](O)C4=C)CCC[C@]23C)OC1=O
1970	C=C1/C(=C\C=C2/CCC[C@]3(C)[C@@H]([C@H](C)C[C@@H]4OC(=O)C(=C)[C@@H]4C)CC[C@@H]23)C[C@@H](O)[C@H](OCCCO)[C@@H]1O
220	C=C1/C(=C\C=C2/CCC[C@]3(C)[C@@H]([C@H](C)C[C@@H]4OC(=O)C(=C)[C@@H]4C)CC[C@@H]23)C[C@@H](O)C[C@@H]1O
37	C=C1/C(=C\C=C2/CCC[C@]3(C)[C@@H]([C@H](C)C[C@H]4OC(=O)C(=C)[C@@H]4CC)CC[C@@H]23)C[C@@H](O)[C@H](CCCO)[C@@H]1O
170	C=C1/C(=C\C=C2/CCC[C@]3(C)[C@@H]([C@H](C)C[C@H]4OC(=O)C(=C)[C@H]4CCC)CC[C@@H]23)C[C@@H](O)[C@H](C)[C@@H]1O
442	C=C1/C(=C\C=C2/CCC[C@]3(C)[C@@H]([C@H](C)C[C@@H]4OC(=O)C(=C)[C@@H]4CC)CC[C@@H]23)C[C@@H](O)[C@H](CCCO)[C@@H]1O
1290	C=C1/C(=C\C=C2/CCC[C@]3(C)[C@@H]([C@H](C)C[C@@H]4OC(=O)C(=C)[C@@H]4CC)CC[C@@H]23)C[C@@H](O)[C@H](C)[C@@H]1O
102	C=C1/C(=C\C=C2/CCC[C@]3(C)[C@@H]([C@H](C)C[C@H]4OC(=O)C(=C)[C@H]4CCCC)CC[C@@H]23)C[C@@H](O)[C@H](C)[C@@H]1O
38	C=C1C(=O)O[C@H](C[C@@H](C)[C@H]2CC[C@H]3/C(=C/C=C4/C[C@@H](O)C[C@H](O)C4=C)CCC[C@]23C)[C@@H]1CCC
